Experimental data reported in ChEMBL document CHEMBL3727370, “HM74 receptor agonists:xanthine derivatives, corresponding pharmaceutical compositions, treatment methods and processes” (2013).

Each compound was assayed against Hydroxycarboxylic acid receptor 2 (Homo sapiens, UniProt Q8TDS4) (assay: Agonist activity at human HM74A transfected in CHO-K1 cells for 4 hrs by [35S]-GTPgammaS binding assay).
Format: functional, cell-based

Hydroxycarboxylic acid receptor 2, sequence (Q8TDS4 whole entry): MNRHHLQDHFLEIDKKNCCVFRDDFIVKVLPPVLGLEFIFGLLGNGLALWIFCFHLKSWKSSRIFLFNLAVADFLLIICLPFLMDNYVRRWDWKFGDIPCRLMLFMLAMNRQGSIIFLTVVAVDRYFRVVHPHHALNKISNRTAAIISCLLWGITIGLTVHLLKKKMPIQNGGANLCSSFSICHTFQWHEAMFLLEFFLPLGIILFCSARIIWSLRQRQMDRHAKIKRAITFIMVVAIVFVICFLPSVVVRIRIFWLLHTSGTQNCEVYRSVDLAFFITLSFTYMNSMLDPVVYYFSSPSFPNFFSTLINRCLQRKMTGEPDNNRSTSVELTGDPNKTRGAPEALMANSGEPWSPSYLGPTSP

Structure (SMILES) | EC50 | Efficacy
CCCCCn1c(=O)[nH]c(=O)c2[nH]c(Cl)nc21 | < 12.6 µM | > 30%
O=c1[nH]c(=O)n(CCC2CCC2)c2nc(Cl)[nH]c12 | < 12.6 µM | > 30%
CCCn1c(=O)n(CC#N)c(=O)c2[nH]c(Cl)nc21 | < 12.6 µM | > 30%
O=c1[nH]c(=O)n(CC2CCCC2)c2nc(Cl)[nH]c12 | < 12.6 µM | > 30%
O=c1[nH]c(=O)n(CCCCCCF)c2nc(Cl)[nH]c12 | < 12.6 µM | > 30%
CC(C)CCCn1c(=O)[nH]c(=O)c2[nH]c(Cl)nc21 | < 12.6 µM | > 30%
O=c1[nH]c(=O)n(CC2CC2)c2nc(Cl)[nH]c12 | < 12.6 µM | > 30%
CCCCCCn1c(=O)[nH]c(=O)c2[nH]c(Cl)nc21 | < 12.6 µM | > 30%
Cn1c(=O)c2[nH]c(Cl)nc2n(CCCC#N)c1=O | < 12.6 µM | > 30%
CCCCCn1c(=O)n(C)c(=O)c2[nH]c(C#N)nc21 | < 12.6 µM | > 30%
O=c1[nH]c(=O)n(CCC2CCCCC2)c2nc(Cl)[nH]c12 | < 12.6 µM | > 30%
C=CCCCn1c(=O)[nH]c(=O)c2[nH]c(Cl)nc21 | < 12.6 µM | > 30%
O=c1[nH]c(=O)n(CCC2CCCC2)c2nc(Cl)[nH]c12 | < 12.6 µM | > 30%
CCn1c(=O)c2[nH]c(Cl)nc2n(CC(F)(F)F)c1=O | < 12.6 µM | > 30%
CCCn1c(=O)c2[nH]c(Cl)nc2n(CC(F)(F)F)c1=O | < 12.6 µM | > 30%
CCn1c(=O)n(C)c(=O)c2[nH]c(Cl)nc21 | < 12.6 µM | > 30%
CC(C)CCn1c(=O)[nH]c(=O)c2[nH]c(Cl)nc21 | < 12.6 µM | > 30%
O=c1[nH]c(=O)n(CCCC2CC2)c2nc(Cl)[nH]c12 | < 12.6 µM | > 30%
O=c1c2[nH]c(Cl)nc2n(CC(F)(F)F)c(=O)n1CCCC(F)(F)F | < 12.6 µM | > 30%

Structure (SMILES) | EC50 | Efficacy
O=c1[nH]c(=O)n(CC2CCC2)c2nc(Cl)[nH]c12 | < 12.6 µM | > 30%
CC(C)CCCCCn1c(=O)[nH]c(=O)c2[nH]c(Cl)nc21 | < 12.6 µM | > 30%
CCCCn1c(=O)n(CC#N)c(=O)c2[nH]c(Cl)nc21 | < 12.6 µM | > 30%
O=c1[nH]c(=O)n(CCCC(F)(F)F)c2nc(Cl)[nH]c12 | < 12.6 µM | > 30%
O=c1[nH]c(=O)n(CCCF)c2nc(Cl)[nH]c12 | < 12.6 µM | > 30%
Cn1c(=O)c2[nH]c(Cl)nc2n(CCCC(F)(F)F)c1=O | < 12.6 µM | > 30%
C=CCCn1c(=O)[nH]c(=O)c2[nH]c(Cl)nc21 | < 12.6 µM | > 30%
N#CCn1c(=O)[nH]c(=O)c2[nH]c(Cl)nc21 | < 12.6 µM | > 30%
N#CCn1c(=O)c2[nH]c(Cl)nc2n(CC#N)c1=O | < 12.6 µM | > 30%
CCCCCn1c(=O)n(C)c(=O)c2[nH]c(Cl)nc21 | < 12.6 µM | > 30%
O=c1[nH]c(=O)n(CCCCCF)c2nc(Cl)[nH]c12 | < 12.6 µM | > 30%
O=c1[nH]c(=O)n(CC2CCCCC2)c2nc(Cl)[nH]c12 | < 12.6 µM | > 30%
CCCCCn1c(=O)n(C)c(=O)c2[nH]c(Br)nc21 | < 12.6 µM | > 30%
O=c1[nH]c(=O)n(CCC(F)(F)F)c2nc(Cl)[nH]c12 | < 12.6 µM | > 30%
CCC(C)Cn1c(=O)[nH]c(=O)c2[nH]c(Cl)nc21 (racemic) | < 12.6 µM | > 30%
CCCCn1c(=O)n(CC)c(=O)c2[nH]c(Cl)nc21 | < 12.6 µM | > 30%
CCCCn1c(=O)c2[nH]c(C#N)nc2n(CCCC)c1=O | < 12.6 µM | > 30%
CCCC(C)Cn1c(=O)[nH]c(=O)c2[nH]c(Cl)nc21 (racemic) | < 12.6 µM | > 30%

More lines, now with the values ahead:

EC50 | Efficacy | Structure (SMILES)
< 12.6 µM | > 30% | O=c1[nH]c(=O)n(CCCCF)c2nc(Cl)[nH]c12
< 12.6 µM | > 30% | N#CCCCn1c(=O)[nH]c(=O)c2[nH]c(Cl)nc21
< 12.6 µM | > 30% | O=c1c2[nH]c(Cl)nc2n(CCCC(F)(F)F)c(=O)n1CCCC(F)(F)F
< 12.6 µM | > 30% | O=c1[nH]c(=O)n(CCC2CC2)c2nc(Cl)[nH]c12
< 12.6 µM | > 30% | CCCCCCCCn1c(=O)[nH]c(=O)c2[nH]c(Cl)nc21
< 12.6 µM | > 30% | O=c1[nH]c(=O)n(CC(F)(F)F)c2nc(Cl)[nH]c12
< 12.6 µM | > 30% | CCCCn1c(=O)[nH]c(=O)c2[nH]c(Cl)nc21
< 12.6 µM | > 30% | CCCCCCn1c(=O)n(C)c(=O)c2[nH]c(Cl)nc21
< 12.6 µM | > 30% | CCC(C)CCn1c(=O)[nH]c(=O)c2[nH]c(Cl)nc21 (racemic)
< 12.6 µM | > 30% | CC(C)(C#N)CCCCn1c(=O)[nH]c(=O)c2[nH]c(Cl)nc21
< 12.6 µM | > 30% | CCCCn1c(=O)c2[nH]c(I)nc2n(CCCC)c1=O
< 12.6 µM | > 30% | CCCCn1c(=O)n(C)c(=O)c2[nH]c(C#N)nc21
< 12.6 µM | > 30% | CCCCCCCCCCn1c(=O)[nH]c(=O)c2[nH]c(Cl)nc21
< 12.6 µM | > 30% | CCCn1c(=O)[nH]c(=O)c2[nH]c(Cl)nc21
< 12.6 µM | > 30% | N#CCn1c(=O)c2[nH]c(Cl)nc2n(CCC2CC2)c1=O
– | > 30% | CCCCn1c(=O)n(C)c(=O)c2[nH]c(Cl)nc21
< 12.6 µM | > 30% | CCCn1c(=O)n(C)c(=O)c2[nH]c(Cl)nc21
